Active and inactive are the calls of the source. No cut-off for these calls is given here.
Tests used:
[1] = system: Staphylococcus aureus; assay: (§1) Inhibition of Staphylococcus aureus ClpXP using ssrA degradation tagged fluorescent GFP substrate in presence of ATP regeneration system pre-incubation for 15 mins before substrate addition by fluorescence assay
[2] = system: Staphylococcus aureus; assay: Inhibition of Staphylococcus aureus ClpCP at 100 uM using ssrA degradation tagged fluorescent GFP substrate in presence of ATP regeneration system pre-incubation for 15 mins before substrate addition by fluorescence assay
[3] = as §1
[4] = target: T1, ATP-dependent Clp protease proteolytic subunit (Staphylococcus aureus (strain NCTC 8325)) (UniProt Q2G036); assay: Inhibition of Staphylococcus aureus ClpP using ssrA degradation tagged fluorescent GFP substrate in presence of ATP regeneration system pre-incubation for 15 mins before substrate addition by fluorescence assay
T1 sequence (whole entry): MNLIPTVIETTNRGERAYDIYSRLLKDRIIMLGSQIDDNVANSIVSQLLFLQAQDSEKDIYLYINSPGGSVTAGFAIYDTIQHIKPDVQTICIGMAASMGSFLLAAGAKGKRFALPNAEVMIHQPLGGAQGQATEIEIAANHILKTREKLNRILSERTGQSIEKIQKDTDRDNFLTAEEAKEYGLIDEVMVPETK

[5] = system: Staphylococcus aureus; assay: Inhibition of Staphylococcus aureus ClpXP using ssrA degradation tagged fluorescent GFP substrate in presence of ATP regeneration system pre-incubation for 15 mins before substrate addition by fluorescence assay relative to control

| Compound | inhibition (active/not active) [1] | also measured |
| --- | --- | --- |
| O=C(O)c1ccc(C2Sc3ccccc3NC3=C2C(=O)c2ccccc23)cc1 (stereo not drawn) | inactive |  |
| O=C1C2=C(Nc3ccccc3SC2c2ccccc2)c2ccccc21 (stereo not drawn) | Active |  |
| C#CCNC(=O)c1ccc2c(c1)C(=O)C1=C2Nc2ccccc2SC1c1cccc(O)c1 (stereo not drawn) | Active |  |
| C#Cc1ccc2c(c1)C1=C(C2=O)C(c2cc(O)cc(N=[N+]=[N-])c2)Sc2ccccc2N1 (stereo not drawn) | Active |  |
| O=C1C2=C(Nc3ccccc3SC2c2ccc(-c3ccccc3)cc2)c2ccccc21 (stereo not drawn) | Active |  |
| COc1cccc(C2Sc3ccccc3NC3=C2C(=O)c2ccccc23)c1 (stereo not drawn) | Active |  |
| O=C1C2=C(Nc3ccccc3SC2c2cccc(O)c2)c2cc(Cl)c(Cl)cc21 (stereo not drawn) | Active |  |
| COc1cc(O)cc(C2Sc3ccccc3NC3=C2C(=O)c2ccccc23)c1 (stereo not drawn) | Active |  |
| C#CCNC(=O)c1ccc2c(c1)C1=C(C2=O)C(c2cccc(O)c2)Sc2ccccc2N1 (stereo not drawn) | Active |  |
| COC(=O)c1ccc(OC(=O)CCc2cc(OC)c(OC)c(OC)c2)cc1 |  | inhibition [2]: inactive |
| N#CC1=C(N)Oc2[nH]nc(-c3ccc(Br)cc3)c2C1c1ccc(OC(=O)c2ccco2)cc1 (stereo not drawn) |  | IC50 [3]: 3.1 µM; inhibition [4]: inactive; inhibition [2]: inactive |
| COc1cccc(C2C3=C(Nc4ccccc4S2(=O)=O)c2ccccc2C3=O)c1 (stereo not drawn) | Active |  |
| O=C1C2=C(Nc3ccccc3S(=O)(=O)C2c2ccc(-c3ccccc3)cc2)c2ccccc21 (stereo not drawn) | Active |  |
| O=C1C2=C(Nc3ccccc3S(=O)(=O)C2c2ccc(F)cc2)c2ccccc21 (stereo not drawn) | Active |  |
| CC(=O)Oc1ccc(C2Sc3ccccc3NC3=C2C(=O)c2ccccc23)cc1 (stereo not drawn) | Active | inhibition [5]: 35% |
| O=C1C2=C(Nc3ccccc3SC2c2ccc(O)cc2)c2ccccc21 (stereo not drawn) | Active |  |
| C#CCNC(=O)c1ccc2c(c1)C1=C(C2=O)C(c2cccc(OC)c2)Sc2ccccc2N1 (stereo not drawn) | Active |  |
| C#CCCCCOc1cc(O)cc(C2Sc3ccccc3NC3=C2C(=O)c2ccccc23)c1 (stereo not drawn) | Active |  |
| O=C1C2=C(Nc3ccccc3SC2c2ccc(C(F)(F)F)cc2)c2ccccc21 (stereo not drawn) | Active |  |
| O=C1C2=C(Nc3ccccc3SC2c2cccnc2)c2ccccc21 (stereo not drawn) | inactive |  |
